In US10538516B2, “Oxadiazole derivative and pharmaceutical containing same” (National Center for Geriatrics and Gerontology, priority 2015, dated 2020):

Tests used:
[1] = target: T1, GAβ-dependent amyloid fibril formation (Human Aβ1-40 + GM1-containing liposome) (Homo sapiens, UniProt P05067); assay: Thioflavin T (ThT) assay of GAβ-dependent amyloid fibril formation (Aβ1-40 with GM1-containing liposome); format: biochemical; conditions: inhibition rate against amyloid fibril formation, final concentration of the compound 25 μM; read-out: Inhibitory activity ABC evaluation
T1 construct: Human Aβ1-40 (cat. #4307-v, prepared by Peptide Institute); purchased Peptide Institute 4307-v
Procedure, shortened: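 Human Aβ1-40 (75 μM stock) pre-incubated 10 min at room temperature with compound (75 or 15 μM solution), then GM1-containing cholesterol/sphingomyelin liposome added and incubated 37° C, 18 hours. Fibrils quantified by ThT fluorescence (ex 430/em 490 nm, pH 8.5 glycine buffer); inhibition as ratio to compound-free control.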

T1 sequence (P05067 672-711 limits assumed): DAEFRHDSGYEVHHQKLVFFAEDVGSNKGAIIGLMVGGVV

Row | Structure (SMILES) | inhibition at 25 µM [1] | melting point
1 | COc1ccc(-c2noc(CCC(=O)N(CCCO)c3cccc(Cl)c3)n2)cc1 [Compound 6, N-(3-chlorophenyl)-N-(3-hydroxypropyl)-3-{3-(4-methoxyphenyl)-1,2,4-oxadiazol-5-yl}propanamide] | 40 to 80% | 80 °C
2 | CCCN(C(=O)CCc1nc(-c2ccc(OC)cc2)no1)c1cccc(Cl)c1 [Compound 2, N-(3-chlorophenyl)-3-{3-(4-methoxyphenyl)-1,2,4-oxadiazol-5-yl}-N-propylpropanamide] | 40 to 80% | 85 °C
3 | COc1ccc(-c2noc(CCC(=O)N(CCO)c3cccc(Cl)c3)n2)cc1 [Compound 3, N-(3-chlorophenyl)-N-(2-hydroxyethyl)-3-{3-(4-methoxyphenyl)-1,2,4-oxadiazol-5-yl}propanamide] | < 40% | 95 °C
4 | O=C(N[C@@H](CO)c1nc(-c2ccc(-n3cccn3)cc2)no1)c1ccc(F)cc1 [Compound 179, 4-fluoro-N-[(1S)-2-hydroxy-1-{3-[4-(1H-pyrazol-1-yl)phenyl]-1,2,4-oxadiazol-5-yl}ethyl]benzamide] | 40 to 80% | –
5 | O=C(N[C@@H](CO)c1nc(-c2ccc(C(F)(F)F)cc2)no1)c1ccc2[nH]nnc2c1 [Compound 238, N-[(1S)-2-hydroxy-1-{3-[4-(trifluoromethyl)phenyl]-1,2,4-oxadiazol-5-yl}ethyl]-1H-1,2,3-benzotriazole-5-carboxamide] | 40 to 80% | –

More lines, now with the values ahead:

Row | inhibition at 25 µM [1] | melting point | Structure (SMILES)
6 | < 40% | 167 °C | COc1ccc(-c2noc(CCC(=O)Nc3cc(Cl)ccn3)n2)cc1 [Compound 4, N-(4-chloropyridin-2-yl)-3-{3-(4-methoxyphenyl)-1,2,4-oxadiazol-5-yl}propanamide]
7 | < 40% | 108 °C | CCCN(C(=O)Cc1nc(-c2ccc(OC)cc2)no1)c1cccc(Cl)c1 [Compound 1, N-(3-chlorophenyl)-2-{3-(4-methoxyphenyl)-1,2,4-oxadiazol-5-yl}-N-propylacetamide]
8 | 40 to 80% | – | O=C1CC(c2nc(-c3ccc(OC(F)F)cc3)no2)CN1c1ccc(Cl)cn1 (centres unmarked) [Compound 62, 1-(5-chloropyridin-2-yl)-4-{3-[4-(difluoromethoxy)phenyl]-1,2,4-oxadiazol-5-yl}pyrrolidin-2-one]
9 | 40 to 80% | – | O=C1CC(c2nc(-c3cccc(OC(F)(F)F)c3)no2)CN1c1ccc(Cl)cc1 (centres unmarked) [Compound 33]
